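Protocol summary: plate cells (96-well), add compound at 5 concentrations, incubate 48 h, interpolate endpoints linearly. Here, GI50 denotes the concentration required for 50% inhibition of growth. At the TGI there is no net growth.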
Experiments:
Experiment in all cases: NCI anticancer screen, dose series, 48 h
[1] = test system: NCI-H226 lung
[2] = test system: M14 melanoma
[3] = test system: OVCAR-3 ovarian
[4] = test system: UACC-62 melanoma
[5] = test system: RPMI-8226 leukemia
[6] = test system: HCT-116 colon
[7] = test system: SF-539 CNS
[8] = test system: COLO 205 colon
[9] = test system: SF-295 CNS
[10] = test system: OVCAR-8 ovarian
[11] = test system: 786-0 renal
[12] = test system: HS 578T breast
[13] = test system: DU-145 prostate
[14] = test system: PC-3 prostate
[15] = test system: TK-10 renal
[16] = test system: SK-OV-3 ovarian
[17] = test system: NCI-H460 lung
[18] = test system: MCF7 breast
[19] = test system: K-562 leukemia
[20] = test system: HL-60(TB) leukemia
[21] = test system: CCRF-CEM leukemia
[22] = test system: HT29 colon
[23] = test system: UACC-257 melanoma
[24] = test system: NCI-H522 lung
[25] = test system: SK-MEL-28 melanoma
[26] = test system: NCI-H23 lung
[27] = test system: MOLT-4 leukemia
[28] = test system: EKVX NSCLC
[29] = test system: RXF 393 renal
[30] = test system: IGROV1 ovarian
[31] = test system: SK-MEL-2 melanoma
[32] = test system: SW-620 colon
[33] = test system: HCT-15 colon
[34] = test system: SNB-19 CNS
[35] = test system: MALME-3M melanoma
[36] = test system: A498 renal
[37] = test system: SN12C renal
[38] = test system: UO-31 renal
[39] = test system: LOX IMVI melanoma
[40] = test system: OVCAR-5 ovarian
[41] = test system: HOP-62 NSCLC
[42] = test system: T-47D breast
[43] = test system: BT-549 breast
[44] = test system: MDA-MB-231 breast
[45] = test system: CAKI-1 renal
[46] = test system: SF-268 CNS
[47] = test system: U251 CNS
[48] = test system: MDA-MB-435
[49] = test system: KM12 colon
[50] = test system: SK-MEL-5 melanoma
[51] = test system: ACHN renal
[52] = test system: OVCAR-4 ovarian
[53] = test system: SNB-75 CNS
[54] = test system: HOP-92 NSCLC
[55] = test system: HCC-2998 colon
[56] = test system: NCI/ADR-RES ovarian
[57] = test system: SR leukemia
[58] = test system: A549 NSCLC
[59] = test system: MDA-N

Q: `Cc1cc(CNC(=O)OCc2ccccc2)c(C)c2c1Oc1ccccc1O2` was tested. Which TGI [1] did it give?
A: Its TGI is greater than 93600 nM.

Q: What about the TGI [2] of the same molecule?
A: Its TGI is greater than 100000 nM.

Q: And the TGI [3]?
A: Its TGI is greater than 100000 nM.

Q: And the TGI [4]?
A: The TGI was greater than 100000 nM.

Q: And the TGI [5]?
A: The TGI was greater than 100000 nM.

Q: What about the TGI [6] of the same molecule?
A: Its TGI is greater than 100000 nM.

Q: What about the GI50 [7] of the same molecule?
A: Its GI50 is 19500 nM.

Q: What about the TGI [7] of the same molecule?
A: The TGI was 47900 nM.

Q: What about the TGI [8] of the same molecule?
A: The TGI was greater than 100000 nM.

Q: And the TGI [9]?
A: The TGI was greater than 100000 nM.

Q: What about the TGI [10] of the same molecule?
A: Its TGI is 58500 nM.

Q: What about the TGI [11] of the same molecule?
A: Its TGI is 35600 nM.

Q: What about the TGI [12] of the same molecule?
A: The TGI was 53600 nM.

Q: What about the TGI [13] of the same molecule?
A: The TGI was greater than 100000 nM.

Q: And the TGI [14]?
A: Its TGI is greater than 100000 nM.

Q: What about the TGI [15] of the same molecule?
A: The TGI was greater than 100000 nM.

Q: What about the TGI [16] of the same molecule?
A: The TGI was 51300 nM.

Q: And the TGI [17]?
A: The TGI was greater than 100000 nM.

Q: What about the TGI [18] of the same molecule?
A: The TGI was greater than 100000 nM.

Q: What about the TGI [19] of the same molecule?
A: The TGI was greater than 100000 nM.

Q: And the GI50 [20]?
A: Its GI50 is greater than 100000 nM.

Q: What about the TGI [20] of the same molecule?
A: The TGI was greater than 100000 nM.

Q: What about the TGI [21] of the same molecule?
A: The TGI was greater than 100000 nM.

Q: And the TGI [22]?
A: The TGI was greater than 68800 nM.

Q: And the TGI [23]?
A: Its TGI is greater than 100000 nM.

Q: What about the TGI [24] of the same molecule?
A: Its TGI is 90700 nM.

Q: And the TGI [25]?
A: Its TGI is greater than 100000 nM.

Q: What about the TGI [26] of the same molecule?
A: Its TGI is greater than 100000 nM.

Q: And the TGI [27]?
A: Its TGI is greater than 100000 nM.

Q: What about the TGI [28] of the same molecule?
A: Its TGI is greater than 100000 nM.

Q: And the TGI [29]?
A: The TGI was 32600 nM.

Q: What about the TGI [30] of the same molecule?
A: Its TGI is greater than 100000 nM.

Q: What about the TGI [31] of the same molecule?
A: The TGI was greater than 27300 nM.

Q: And the TGI [32]?
A: The TGI was greater than 100000 nM.

Q: What about the TGI [33] of the same molecule?
A: The TGI was greater than 100000 nM.

Q: What about the TGI [34] of the same molecule?
A: The TGI was greater than 92900 nM.

Q: And the TGI [35]?
A: Its TGI is greater than 100000 nM.

Q: What about the TGI [36] of the same molecule?
A: The TGI was 74700 nM.

Q: What about the TGI [37] of the same molecule?
A: Its TGI is greater than 91800 nM.

Q: And the TGI [38]?
A: Its TGI is greater than 100000 nM.

Q: What about the TGI [39] of the same molecule?
A: The TGI was greater than 100000 nM.

Q: What about the TGI [40] of the same molecule?
A: Its TGI is greater than 100000 nM.

Q: And the TGI [41]?
A: The TGI was 53300 nM.

Q: What about the TGI [42] of the same molecule?
A: Its TGI is greater than 100000 nM.

Q: What about the TGI [43] of the same molecule?
A: Its TGI is greater than 100000 nM.

Q: What about the TGI [44] of the same molecule?
A: The TGI was greater than 60500 nM.

Q: What about the TGI [45] of the same molecule?
A: The TGI was greater than 87500 nM.

Q: What about the TGI [46] of the same molecule?
A: Its TGI is greater than 74300 nM.

Q: And the TGI [47]?
A: The TGI was greater than 67300 nM.

Q: And the TGI [48]?
A: The TGI was greater than 100000 nM.

Q: And the TGI [49]?
A: Its TGI is greater than 100000 nM.

Q: And the TGI [50]?
A: The TGI was greater than 100000 nM.

Q: What about the TGI [51] of the same molecule?
A: The TGI was greater than 100000 nM.

Q: What about the TGI [52] of the same molecule?
A: Its TGI is 72300 nM.

Q: And the TGI [53]?
A: The TGI was 36300 nM.

Q: And the TGI [54]?
A: Its TGI is 26100 nM.

Q: What about the TGI [55] of the same molecule?
A: The TGI was greater than 100000 nM.

Q: And the TGI [56]?
A: The TGI was greater than 71400 nM.

Q: And the TGI [57]?
A: Its TGI is greater than 100000 nM.

Q: And the TGI [58]?
A: The TGI was 97700 nM.

Q: What does the source list for `COc1cc2cc(C(=O)N3C[C@@H](CCl)c4c3cc(N)c3ccccc43)[nH]c2c(OC)c1OC`?
A: TGI [5]: > 100000 nM; TGI [6]: 136 nM; TGI [9]: > 100000 nM; TGI [12]: > 100000 nM; TGI [14]: 108 nM; TGI [16]: 1450 nM; TGI [18]: 22000 nM; TGI [19]: > 100000 nM; TGI [20]: > 100000 nM; TGI [21]: > 100000 nM; TGI [22]: 1100 nM; TGI [25]: > 100000 nM; TGI [27]: 1640 nM; TGI [59]: 1.53 nM; TGI [30]: 467 nM; TGI [32]: > 100000 nM; TGI [33]: 1110 nM; TGI [45]: 36.4 nM; TGI [46]: > 100000 nM; TGI [47]: > 100000 nM; TGI [49]: 25.7 nM; TGI [54]: > 100000 nM; TGI [57]: > 100000 nM; TGI [58]: > 100000 nM

Q: What does the source list for `CC(C)c1ccc(C(=O)Nc2sc3c(c2C#N)CCC(=O)C3)cc1`?
A: GI50 [1]: 3880 nM; TGI [1]: 16300 nM; GI50 [2]: 592 nM; TGI [2]: 26400 nM; GI50 [3]: 396 nM; TGI [3]: 1610 nM; GI50 [4]: 318 nM; TGI [4]: 1600 nM; GI50 [5]: 152 nM; GI50 [6]: 180 nM; TGI [6]: > 24300 nM; GI50 [7]: 337 nM; TGI [7]: 1410 nM; GI50 [8]: 490 nM; TGI [8]: 2870 nM; GI50 [9]: 1360 nM; TGI [9]: > 28100 nM; GI50 [10]: 431 nM; TGI [10]: > 100000 nM; GI50 [11]: 670 nM; TGI [11]: > 21800 nM; GI50 [12]: 546 nM; TGI [12]: > 100000 nM; GI50 [13]: 4260 nM; TGI [13]: > 100000 nM; GI50 [14]: 263 nM; TGI [14]: > 23700 nM; GI50 [15]: 613 nM; TGI [15]: 5470 nM; GI50 [16]: 2390 nM; TGI [16]: 8150 nM; GI50 [17]: 1140 nM; TGI [17]: > 35900 nM; GI50 [18]: 337 nM; TGI [18]: > 45000 nM; GI50 [19]: 203 nM; GI50 [20]: 413 nM; GI50 [21]: 189 nM; TGI [21]: > 100000 nM; GI50 [22]: 465 nM; TGI [22]: > 21900 nM; GI50 [23]: 1730 nM; TGI [23]: 6050 nM; GI50 [24]: 248 nM; TGI [24]: 2160 nM; GI50 [25]: 754 nM; TGI [25]: 9840 nM; GI50 [26]: 320 nM; TGI [26]: 9570 nM; GI50 [27]: 412 nM; TGI [27]: > 100000 nM; GI50 [28]: 1940 nM; TGI [28]: > 88800 nM; GI50 [29]: 271 nM; TGI [29]: 1140 nM; GI50 [30]: 458 nM; TGI [30]: 13100 nM; GI50 [31]: 1600 nM; TGI [31]: 5970 nM; GI50 [32]: 266 nM; TGI [32]: 1670 nM; GI50 [33]: 310 nM; TGI [33]: 1950 nM; GI50 [34]: 409 nM; TGI [34]: > 100000 nM; GI50 [35]: 1170 nM; TGI [35]: 3820 nM; GI50 [36]: 1920 nM; TGI [36]: 6290 nM; GI50 [37]: 378 nM; TGI [37]: > 100000 nM; GI50 [38]: 252 nM; TGI [38]: 982 nM; GI50 [39]: 390 nM; TGI [39]: > 33400 nM; GI50 [40]: 552 nM; TGI [40]: 5110 nM; GI50 [41]: 3020 nM; TGI [41]: > 87600 nM; GI50 [42]: 263 nM; TGI [42]: 1480 nM; GI50 [43]: 306 nM; TGI [43]: 3130 nM; GI50 [44]: 594 nM; TGI [44]: 2880 nM; GI50 [45]: 343 nM; TGI [45]: 1950 nM; GI50 [46]: 432 nM; TGI [46]: > 75000 nM; GI50 [47]: 338 nM; TGI [47]: > 100000 nM; GI50 [48]: 1020 nM; TGI [48]: 5720 nM; GI50 [49]: 413 nM; TGI [49]: 7830 nM; GI50 [50]: 979 nM; TGI [50]: 2520 nM; GI50 [51]: 330 nM; TGI [51]: 1060 nM; GI50 [52]: 294 nM; TGI [52]: 1360 nM; GI50 [53]: 601 nM; TGI [53]: 5380 nM; GI50 [54]: 607 nM; TGI [54]: 2400 nM; GI50 [55]: 1940 nM; TGI [55]: > 37400 nM; GI50 [56]: 464 nM; TGI [56]: 11200 nM; GI50 [57]: 424 nM; TGI [57]: > 100000 nM; GI50 [58]: 1630 nM; TGI [58]: > 100000 nM
